Laboratory results taken from patent US20230279036A1, “Salts of Remdesivir” (Apotex Inc., priority 2020, published 2023).

Assay: PXRD study of crystalline form stability in a 40° C./75% RH stability chamber
Format: physicochemical
Conditions: capped and uncapped samples, at least one year
Experimental: Remdesivir napsylate Form APO-I can be characterized by a PXRD diffractogram comprising, among other peaks, characteristic peaks, expressed in degrees 2θ (±0.2°), at 5.1°, 6.5° and 13.1°. Preferably, the PXRD diffractogram further comprises at least three peaks, expressed in degrees 2θ (±0.2°), selected from the group consisting of 4.5°, 9.0°, 10.0°, 11.5°, 13.6°, 15.3°, 16.4°, 17.2°, 20.2° and 24.3°. More preferably, the PXRD diffractogram further comprises peaks, expressed in degrees 2θ (±0.2°), at 4.5°, 9.0°, 10.0°, 11.5°, 13.6°, 15.3°, 16.4°, 17.2°, 20.2° and 24.3°.
Remdesivir tosylate Form APO-I can be characterized by a PXRD diffractogram comprising, among other peaks, characteristic peaks, expressed in degrees […] (±0.2°), at 5.5°, 7.7° and 13.1°. Preferably, the PXRD diffractogram further comprises at least three peaks, expressed in degrees 2θ (±0.2°), selected from the group consisting of 4.5°, 6.5°, 9.1°, 9.8°, 16.0°, 16.6°, 17.1°, 17.5°, 18.4° and 20.0°. More preferably, the PXRD diffractogram further comprises peaks, expressed in degrees 2θ (±0.2°), at 4.5°, 6.5°, 9.1°, 9.8°, 16.0°, 16.6°, 17.1°, 17.5°, 18.4° and 20.0°.
The PXRD diffractogram was recorded on a Bruker D8 Discover powder X-ray diffractometer (Bruker-AXS, Karlsruhe, Germany). […] Raw data was evaluated using the program EVA (Bruker-AXS, Karlsruhe, Germany).

Compound | change in the crystalline form by PXRD
CCC(CC)COC(=O)C(C)NP(=O)(OCC1OC(C#N)(c2ccc3c(N)ncnn23)C(O)C1O)Oc1ccccc1.O=S(=O)(O)c1ccc2ccccc2c1 (centres unmarked) [remdesivir napsylate Form APO-I, remdesivir naphthalene-2-sulfonate Form APO-I] | no change in the crystalline form occurred
CCC(CC)COC(=O)[C@H](C)N[P@](=O)(OC[C@H]1O[C@@](C#N)(c2ccc3c(N)ncnn23)[C@H](O)[C@@H]1O)Oc1ccccc1.Cc1ccc(S(=O)(=O)O)cc1 [remdesivir tosylate Form APO-1, remdesivir tosylate Form APO-I] | no change in the crystalline form occurred
